Read-outs that look alike come from different tables or passages of the source.
Assays:
Type in all cases: cell-based
BaF3_HER2YVMA cells = assay: Cell growth inhibition assay, BaF3_HER2YVMA; conditions: BaF3_HER2YVMA cells, 3 days treatment, CellTiterGlo 2.0, read-out: HER2-YVMA IC50 (nM), cell growth inhibition
BaF3_EGFRWT cells = assay: Cell growth inhibition assay, BaF3_EGFRWT; conditions: 80 ng/mL recombinant human EGF, 3 days treatment, CellTiterGlo 2.0, read-out: EGFR WT IC50 (nM), cell growth inhibition
BaF3_HER2WT cells = assay: Cell growth inhibition assay, BaF3_HER2WT; conditions: 3 days treatment, CellTiterGlo 2.0, read-out: HER2 WT IC50 (nM), cell growth inhibition

| SMILES | IC50 (BaF3_HER2YVMA cells) [nM] | IC50 (BaF3_EGFRWT cells) [nM] | IC50 (BaF3_HER2WT cells) [nM] | IC50 (BaF3_HER2WT cells; 72 h) [nM] | IC50 (BaF3_EGFRWT cells; 72 h) [nM] | IC50 (BaF3_HER2YVMA cells; 72 h) [nM] |
| --- | --- | --- | --- | --- | --- | --- |
| C=CC(=O)N1CCCC(c2ccn3ncnc(Nc4ccc(Oc5ccn6ncnc6c5)c(C)c4)c23)CC1 (single isomer, unassigned) [Examples 111 and 112, second eluting isomer, 1-(4-(4-((4-([1,2,4]triazolo[1,5-a]pyridin-7-yloxy)-3-methylphenyl)amino)pyrrolo-[2,1-f][1,2,4]triazin-5-yl)azepan-1-yl)prop-2-en-1-one] | < 200 | 1500 to 5000 |  |  |  |  |
| C=C(CN(C)C)C(=O)N1CCCC(c2ccn3ncnc(Nc4ccc(Oc5ccn6ncnc6c5)c(C)c4)c23)CC1 (single isomer, unassigned) [Examples 143 and 144, second eluting isomer, 1-(4-(4-((4-([1,2,4]triazolo[1,5-a]pyridin-7-yloxy)-3-methylphenyl)amino)pyrrolo[2,1-f][1,2,4]triazin-5-yl)azepan-1-yl)-2-((dimethylamino)methyl)prop-2-en-1-one] | < 200 | 1500 to 5000 | < 200 |  |  |  |
| Cc1cc(Nc2ncnn3ccc(C4CCN(C(=O)/C=C/CN(C)C)C4)c23)ccc1Oc1ccn2ncnc2c1 (single isomer, unassigned) [Examples 99 and 100, first eluting isomer, (E)-1-(3-(4-((4-([1,2,4]triazolo[1,5-a]pyridin-7-yloxy)-3-methylphenyl)amino)pyrrolo[2,1-f][1,2,4]triazin-5-yl)pyrrolidin-1-yl)-4-(dimethylamino)but-2-en-1-one] | < 200 |  |  | < 200 | 1500 to 5000 |  |
| COC1CCN(C/C=C/C(=O)N2CC(c3ccn4ncnc(Nc5ccc(Oc6ccn7ncnc7c6)c(C)c5)c34)C2)CC1 [Example 42, (E)-1-(3-(4-((4-([1,2,4]triazolo[1,5-a]pyridin-7-yloxy)-3-methylphenyl)amino)pyrrolo[2,1-f][1,2,4]triazin-5-yl)azetidin-1-yl)-4-(4-methoxypiperidin-1-yl)but-2-en-1-one] |  |  |  | < 200 | 1500 to 5000 | < 200 |
| C=CC(=O)N1CC(N(C)c2ccn3ncnc(Nc4ccc(Oc5ccn6ncnc6c5)c(C)c4)c23)C1 [Example 77, 1-(3-((4-((4-([1,2,4]triazolo[1,5-a]pyridin-7-yloxy)-3-methylphenyl)amino)pyrrolo[2,1-f][1,2,4]triazin-5-yl)(methyl)amino)azetidin-1-yl)prop-2-en-1-one] |  |  |  | 200 to 500 | 1500 to 5000 | 1500 to 5000 |
| CO[C@H]1CN(C/C=C/C(=O)N2CC(c3ccn4ncnc(Nc5ccc(Oc6ccc7c(c6)ncn7C)c(C)c5)c34)C2)C[C@H]1OC [Example 165, (E)-4-((3R,4S)-3,4-dimethoxypyrrolidin-1-yl)-1-(3-(4-((3-methyl-4-((1-methyl-1H-benzo[d]imidazol-5-yl)oxy)phenyl)amino)pyrrolo[2,1-f][1,2,4]triazin-5-yl)azetidin-1-yl)but-2-en-1-one] |  |  |  | < 200 | 1500 to 5000 | < 200 |
| Cc1cc(Nc2ncnn3ccc(C4CCN(C(=O)/C=C/CN5CC(F)C5)CC4)c23)ccc1Oc1ccn2ncnc2c1 [Example 163] |  |  |  | < 200 | 1500 to 5000 | < 200 |
| Cc1cc(Nc2ncnn3ccc(C4CCCN(C(=O)/C=C/CN(C)C)C4)c23)ccc1Oc1ccn2ncnc2c1 (single isomer, unassigned) [Examples 107 and 108, first eluting isomer, (E)-1-(3-(4-((4-([1,2,4]triazolo[1,5-a]pyridin-7-yloxy)-3-methylphenyl)amino)pyrrolo[2,1-f][1,2,4]triazin-5-yl)piperidin-1-yl)-4-(dimethylamino)but-2-en-1-one] | 500 to 1500 |  | < 200 |  | 1500 to 5000 |  |
| Cc1cc(Nc2ncnn3ccc(C4CCN(C(=O)/C=C/CN5CC(F)C5)CC4)c23)ccc1Oc1ccc2c(c1)ncn2C [Example 162, (E)-4-(3-fluoroazetidin-1-yl)-1-(4-(4-((3-methyl-4-((1-methyl-1H-benzo[d]imidazol-5-yl)oxy)phenyl)amino)pyrrolo[2,1-f][1,2,4]triazin-5-yl)piperidin-1-yl)but-2-en-1-one] |  |  |  | 200 to 500 | 1500 to 5000 | 500 to 1500 |
| CNC/C=C/C(=O)N1CC(c2ccn3ncnc(Nc4ccc(Oc5ccc6c(c5)ncn6C)c(C)c4)c23)C1 [Example 153, (E)-1-(3-(4-((3-methyl-4-((1-methyl-1H-benzo[d]imidazol-5-yl)oxy)phenyl)amino)pyrrolo[2,1-f][1,2,4]triazin-5-yl)azetidin-1-yl)-4-(methylamino)but-2-en-1-one] |  |  |  | 1500 to 5000 | 1500 to 5000 | 1500 to 5000 |
| Cc1cc(Nc2ncnn3ccc(C4CCN(C(=O)[C@@H](F)Cl)CC4)c23)ccc1Oc1ccn2ncnc2c1 (single isomer, unassigned) [Examples 173 and 174, second eluting isomer] |  |  |  | < 200 | 1500 to 5000 | < 200 |
| C=C(F)C(=O)N1CC=C(c2ccn3ncnc(Nc4ccc(Oc5ccn6ncnc6c5)c(C)c4)c23)CC1 [Example 26, 1-(4-(4-((4-([1,2,4]triazolo[1,5-a]pyridin-7-yloxy)-3-methylphenyl)amino)pyrrolo[2,1-f][1,2,4]triazin-5-yl)-3,6-dihydropyridin-1(2H)-yl)-2-fluoroprop-2-en-1-one] |  |  |  | 200 to 500 | 1500 to 5000 | 1500 to 5000 |
| Cc1cc(Nc2ncnn3ccc(C4CN(C(=O)/C=C/C56CCCN5CCC6)C4)c23)ccc1Oc1ccn2ncnc2c1 [Example 159, (E)-1-(3-(4-((4-([1,2,4]triazolo[1,5-a]pyridin-7-yloxy)-3-methylphenyl)amino)pyrrolo[2,1-f][1,2,4]triazin-5-yl)azetidin-1-yl)-3-(tetrahydro-1H-pyrrolizin-7a(5H)-yl)prop-2-en-1-one] |  |  |  | < 200 | 1500 to 5000 | < 200 |
| Cc1cc(Nc2ncnn3ccc(C4CCN(C(=O)/C=C/C(=O)O)CC4)c23)ccc1Oc1ccn2ncnc2c1 [Example 142, (E)-4-(4-(4-((4-([1,2,4]triazolo[1,5-a]pyridin-7-yloxy)-3-methylphenyl)amino)pyrrolo[2,1-f][1,2,4]triazin-5-yl)piperidin-1-yl)-4-oxobut-2-enoic acid] |  |  |  | 1500 to 5000 | 1500 to 5000 | 1500 to 5000 |
| Cc1cc(Nc2c(C#N)cnn3ccc(C4CN(C(=O)/C=C/CN(C)C)C4)c23)ccc1Oc1ccn2ncnc2c1 [Example 86, (E)-4-((4-([1,2,4]triazolo[1,5-a]pyridin-7-yloxy)-3-methylphenyl)amino)-5-(1-(4-(dimethylamino)-but-2-enoyl)azetidin-3-yl)pyrrolo[1,2-b]pyridazine-3-carbonitrile] |  |  |  | 1500 to 5000 | 1500 to 5000 | > 5000 |
| C=C(CN(C)C)C(=O)N1CCCC(c2ccn3ncnc(Nc4ccc(Oc5ccn6ncnc6c5)c(C)c4)c23)CC1 (single isomer, unassigned) [Examples 143 and 144, first eluting isomer, 1-(4-(4-((4-([1,2,4]triazolo[1,5-a]pyridin-7-yloxy)-3-methylphenyl)amino)pyrrolo[2,1-f][1,2,4]triazin-5-yl)azepan-1-yl)-2-((dimethylamino)methyl)prop-2-en-1-one] | 500 to 1500 |  |  | < 200 | 1500 to 5000 |  |
| Cc1cc(Nc2ncnn3ccc(C4CCN(C(=O)/C=C/CN(C)C)C4)c23)ccc1Oc1ccn2ncnc2c1 (single isomer, unassigned) [Examples 99 and 100, second eluting isomer, (E)-1-(3-(4-((4-([1,2,4]triazolo[1,5-a]pyridin-7-yloxy)-3-methylphenyl)amino)pyrrolo[2,1-f][1,2,4]triazin-5-yl)pyrrolidin-1-yl)-4-(dimethylamino)but-2-en-1-one] | 500 to 1500 | 1500 to 5000 | < 200 |  |  |  |
| Cc1cc(Nc2ncnn3ccc(C4=CCN(C(=O)/C=C/CN(C)C)CC4)c23)ccc1Oc1ccn2ncnc2c1 [Example 53, (E)-1-(4-(4-((4-([1,2,4]triazolo[1,5-a]pyridin-7-yloxy)-3-methylphenyl)amino)pyrrolo[2,1-f][1,2,4]triazin-5-yl)-3,6-dihydropyridin-1(2H)-yl)-4-(dimethylamino)but-2-en-1-one] |  |  |  | < 200 | 1500 to 5000 | < 200 |
| Cc1cc(Nc2ncnn3ccc(C4CCCN(C(=O)/C=C/CN(C)C)CC4)c23)ccc1Oc1ccn2ncnc2c1 (single isomer, unassigned) [Examples 109 and 110, second eluting isomer, (E)-1-(4-(4-((4-([1,2,4]triazolo[1,5-a]pyridin-7-yloxy)-3-methylphenyl)amino)pyrrolo[2,1-f][1,2,4]triazin-5-yl)azepan-1-yl)-4-(dimethylamino)but-2-en-1-one] |  | 1500 to 5000 |  |  |  |  |
| Cc1cc(Nc2ncnn3ccc(C4CCN(C(=O)/C=C/CN(C)C)CC4)c23)ccc1Oc1ccn2ncnc2c1 [Example 21, (E)-1-(4-(4-((4-([1,2,4]triazolo[1,5-a]pyridin-7-yloxy)-3-methylphenyl)amino)pyrrolo[2,1-f][1,2,4]triazin-5-yl)piperidin-1-yl)-4-(dimethylamino)but-2-en-1-one] |  |  |  |  | 1500 to 5000 |  |
| COC1CN(C/C=C/C(=O)N2CC(c3ccn4ncnc(Nc5ccc(Oc6ccn7ncnc7c6)c(C)c5)c34)C2)C1 [Example 39, (E)-1-(3-(4-((4-([1,2,4]triazolo[1,5-a]pyridin-7-yloxy)-3-methylphenyl)amino)pyrrolo[2,1-f][1,2,4]triazin-5-yl)azetidin-1-yl)-4-(3-methoxyazetidin-1-yl)but-2-en-1-one] |  |  |  | < 200 | 1500 to 5000 |  |

Reference: patent US20250276983A1, “COMPOUNDS AND METHODS FOR MODULATING HER2” (IAMBIC THERAPEUTICS, INC., priority 2022, published 2025)
